Key:
L. acidophilus NCFM [1] = test: Growth of L. acidophilus NCFM on plant glycosides as single carbon source (OD600); type: cell-based, Lactobacillus acidophilus; settings: for OD600 max: single carbon source, 200 μl cultures, 96 microtitre plates, corrected for medium without carbon source
Method: (§1) For initial growth and gene expression studies, L. acidophilus NCFM was propagated three times in semi-defined medium (SDM) supplemented with either 1% or 0,5% (w/v) of the plant glycoside or carbohydrate (Table 1). For the RNA-seq analysis, cells were harvested by centrifugation (3,220×10 min, 25° C.) in the mid-exponential phase (OD600=0.6-0.8) and stored at −80° C. for subsequent RNA isolation. For the mass spectrometry metabolite analyses, 200 μt samples were taken at 0, 3, 6, 9, 12, and 24 hours of growth; cells were removed by centrifugation; and supernatants were stored at −80° C. for further analysis.
(§2) Phenotypic growth assays were performed using 1% (v/v) overnight cultures of L. acidophilus strains (Table 2) and other Lactobacillus species (Table 3) grown on SDM supplemented with 1% (w/v) glucose to inoculate 200 μL of SDM supplemented with 1% (w/v) of the examined carbohydrate (0.5% in the case of esculin) in 96-well microplate wells (Corning Costar, Corning, N.Y., USA) in duplicate or triplicate wells, respectively. The microplates were sealed with clear adhesive film, incubated at 37° C. in a Fluostar Optima microplate reader (BMG Labtech, Cary, N.C., USA), and the cell optical density (OD600) was monitored for 30 hours.
The growth of L. acidophilus NCFM was evaluated on twelve chemically diverse, nutritionally relevant and/or therapeutically active PGs 1; Table 1). FIG. 1A provides the structures and common sources of plant glycoside substrates described herein. The compounds that support growth of Lactobacillus acidophilus are in green. RI: β-D-Glcp; R2: Gentiobioside (β-D-Glcp-(1,6)-D-Glcp); R3: Rutinoside (α-L-Rhaf-(1,6)-D-Glcp). The graph in FIG. 1B depicts plant glycoside utilization analyzed by mass spectrometry and the growth as the maximum OD600. Due to the low solubility of polydatin, OD600 cannot be used as a growth metric and utilization of this compound is confirmed by the production of lactate as well as a high utilization level based on the metabolite analysis.

L. acidophilus NCFM [2] = test: Plant glycoside uptake and metabolite analysis of L. acidophilus NCFM culture supernatants by UHPLC-DAD-Q-TOF-MS; type: cell-based, Lactobacillus acidophilus; settings: qualitative: depletion of the plant glycoside and/or appearance of its metabolites
Method: as §1
Analysis of plant glycoside uptake from L. acidophilus NCFM culture supernatants using mass spectrometry. The supernatants of L. acidophilus NCFM cultures grown on amygdalin, arbutin, esculin or salicin as carbon sources were analyzed during 24 hours by ultra-high performance liquid chromatography-diode array detection-quadruple time of flight mass spectrometry (UHPLC-DAD-Q-TOF-MS). Samples were diluted 1:20 (v/v) with methanol and an injection volume of […] was used. Separation was carried out on an Agilent Poroshell 120 phenyl-hexyl column (2.1×150 mm, 2.7 μm) using the Agilent Infinity 1290 UHPLC system (Agilent Technologies, Santa Clara, Calif., USA) equipped with a UV/vis spectrum diode array detector. Separation was performed at 0.35 mL min-1., 60° C. with a linear gradient consisting of water (A) and acetonitrile (B) both buffered with 20 mM formic acid, starting at 10% B and increased to 100% in 15 min where it was held for 2 min, returned to 10% in 0.1 min and kept for 3 min. MS detection was performed on an Agilent 6550 iFunnel QTOF MS equipped with Agilent Dual Jet Stream electrospray ion source with the drying gas temperature of 160° C. and gas flow of 13 L min^−1, whereas the sheath gas temperature was 300° C. and flow was 16 L min-1. Ionization was conducted in ESI-mode with capillary voltage set to 4000 V and nozzle voltage to 500 V. Mass spectra were recorded as centroid data for m/z 85-1700 in MS mode with an acquisition rate of 10 spectra s^−1. To avoid carry-over, the needle seat was back-flushed for 15 s at 4 mL min-1 with each of: i) isopropanol: 0.2% ammonium hydroxide (w/v) in water (1:1 v/v); ii) acetonitrile with 2% formic acid (w/v); iii) water with 2% formic acid. Data was processed with the Agilent Mass Hunter Qualitative Analysis B.07.00 software package (Agilent Technologies) and molar concentrations were obtained from standard curves of the plant glycosides and their main metabolites. Targeted compound searches were performed using lists of previously identified compounds plus standard chemical modifications.

L. fermentum ATCC 14931 = test: Phenotypic growth assay (OD600); type: cell-based; settings: SDM + 1% (w/v) carbohydrate (0.5% esculin), 37° C., 30 hours; corrected to medium without carbohydrate
Method: as §2

[3] = system: L. plantarum sp. plantarum ATCC 14917, LA70; test: Phenotypic growth assay (OD600); type: cell-based; settings: SDM + 1% (w/v) carbohydrate (0.5% esculin), 37° C., 30 hours; corrected to medium without carbohydrate
Method: as §2

[4] = system: L. rhanmosus GG (ATCC 53103); test: Phenotypic growth assay (OD600); type: cell-based; settings: SDM + 1% (w/v) carbohydrate (0.5% esculin), 37° C., 30 hours; corrected to medium without carbohydrate
Method: as §2

L. animalis DSM 20602 = test: Phenotypic growth assay (OD600); type: cell-based; settings: SDM + 1% (w/v) carbohydrate (0.5% esculin), 37° C., 30 hours; corrected to medium without carbohydrate
Method: as §2

L. acidophilus LA-1 = test: Phenotypic growth assay (OD600); type: cell-based; settings: SDM + 1% (w/v) carbohydrate (0.5% esculin), 37° C., 30 hours; corrected to medium without carbohydrate
Method: as §2

[5] = system: L. amyloverus ATCC 33620, DSM 20531; test: Phenotypic growth assay (OD600); type: cell-based; settings: SDM + 1% (w/v) carbohydrate (0.5% esculin), 37° C., 30 hours; corrected to medium without carbohydrate
Method: as §2

[6] = system: L. crispatus ATCC 33820, DSM 20584; test: Phenotypic growth assay (OD600); type: cell-based; settings: SDM + 1% (w/v) carbohydrate (0.5% esculin), 37° C., 30 hours; corrected to medium without carbohydrate
Method: as §2

L. johnsonii ATCC 33200 = test: Phenotypic growth assay (OD600); type: cell-based; settings: SDM + 1% (w/v) carbohydrate (0.5% esculin), 37° C., 30 hours; corrected to medium without carbohydrate
Method: as §2

L. helveticus CNRZ32 = test: Phenotypic growth assay (OD600); type: cell-based; settings: SDM + 1% (w/v) carbohydrate (0.5% esculin), 37° C., 30 hours; corrected to medium without carbohydrate
Method: as §2

L. gasseri ATCC 33323 = test: Phenotypic growth assay (OD600); type: cell-based; settings: SDM + 1% (w/v) carbohydrate (0.5% esculin), 37° C., 30 hours; corrected to medium without carbohydrate
Method: as §2

[7] = system: L. reuteri (ATCC 23272, DSM 20016); test: Phenotypic growth assay (OD600); type: cell-based; settings: SDM + 1% (w/v) carbohydrate (0.5% esculin), 37° C., 30 hours; corrected to medium without carbohydrate
Method: as §2

[8] = system: L. jensenii ATCC 25258, 62G, DSM 20557; test: Phenotypic growth assay (OD600); type: cell-based; settings: SDM + 1% (w/v) carbohydrate (0.5% esculin), 37° C., 30 hours; corrected to medium without carbohydrate
Method: as §2

[9] = system: L. intestinalis Th4, ATCC 49335, DSM 6629; test: Phenotypic growth assay (OD600); type: cell-based; settings: SDM + 1% (w/v) carbohydrate (0.5% esculin), 37° C., 30 hours; corrected to medium without carbohydrate
Method: as §2

[10] = growth concentration 0.5% (w/v)

Structure (SMILES): C=CCC(=NOS(=O)(=O)O)S[C@@H]1O[C@H](CO)[C@@H](O)[C@H](O)[C@H]1O (stereo in doubt) [Sinigrin hydrate]
- OD600 max (L. acidophilus NCFM [1]; [10]): 0.0

Structure (SMILES): OC[C@H]1O[C@@H](Oc2ccc(O)cc2)[C@H](O)[C@@H](O)[C@@H]1O [Arbutin]
- Catabolism based on MS (L. acidophilus NCFM [2]; growth concentration 1% (w/v)): No
- Growth (OD600 max class) of L. fermentum ATCC 14931 (L. fermentum ATCC 14931): − (“−” signifies OD600 max < 0.1.)
- Growth (OD600 max class) of L. plantarum sp. plantarum ATCC 14917, LA70 [3]: +++ (“+++” signifies OD600 max > 0.6.)
- Growth (OD600 max class) of L. rhanmosus GG (ATCC 53103) [4]: +++ (“+++” signifies OD600 max > 0.6.)
- Growth (OD600 max class) of L. animalis DSM 20602 (L. animalis DSM 20602): + (“+” signifies 0.3 > OD600 max > 0.1.)
- Growth (OD600 max class) of L. acidophilus LA-1 (L. acidophilus LA-1): − (“−” signifies OD600 max < 0.1.)
- Growth (OD600 max class) of L. amyloverus ATCC 33620, DSM 20531 [5]: − (“−” signifies OD600 max < 0.1.)
- Growth (OD600 max class) of L. crispatus ATCC 33820, DSM 20584 [6]: − (“−” signifies OD600 max < 0.1.)
- Growth (OD600 max class) of L. johnsonii ATCC 33200 (L. johnsonii ATCC 33200): + (“+” signifies 0.3 > OD600 max > 0.1.)
- Growth (OD600 max class) of L. helveticus CNRZ32 (L. helveticus CNRZ32): − (“−” signifies OD600 max < 0.1.)
- Growth (OD600 max class) of L. gasseri ATCC 33323 (L. gasseri ATCC 33323): − (“−” signifies OD600 max < 0.1.)
- Growth (OD600 max class) of L. reuteri (ATCC 23272, DSM 20016) [7]: − (“−” signifies OD600 max < 0.1.)
- Growth (OD600 max class) of L. jensenii ATCC 25258, 62G, DSM 20557 [8]: + (“+” signifies 0.3 > OD600 max > 0.1.)
- Growth (OD600 max class) of L. intestinalis Th4, ATCC 49335, DSM 6629 [9]: − (“−” signifies OD600 max < 0.1.)
- Growth (OD600 max class) of L. acidophilus NCFM (L. acidophilus NCFM [1]; SDM + 1% (w/v) carbohydrate (0.5% esculin), 37° C., 30 hours, corrected to medium without carbohydrate): − (“−” signifies OD600 max < 0.1.)
- OD600 max (L. acidophilus NCFM [1]; growth concentration 1% (w/v)): 0.0

Structure (SMILES): OCC1=C[C@@H](O)[C@@H]2C=CO[C@@H](O[C@@H]3O[C@H](CO)[C@@H](O)[C@H](O)[C@H]3O)[C@H]12 [Aucubin]
- Catabolism based on MS (L. acidophilus NCFM [2]; [10]): No
- OD600 max (L. acidophilus NCFM [1]; [10]): 0.0

Structure (SMILES): O=c1c(-c2ccc(O)cc2)coc2cc(O[C@@H]3O[C@H](CO)[C@@H](O)[C@H](O)[C@H]3O)ccc12 [Daidzin]
- OD600 max (L. acidophilus NCFM [1]; [10]): 0.0

Structure (SMILES): COc1cc2ccc(=O)oc2c(O[C@@H]2O[C@H](CO)[C@@H](O)[C@H](O)[C@H]2O)c1O [Fraxin]
- Catabolism based on MS (L. acidophilus NCFM [2]; [10]): Yes
- OD600 max (L. acidophilus NCFM [1]; [10]): 0.4

Structure (SMILES): O=c1c(O[C@@H]2O[C@H](CO)[C@@H](O)[C@H](O)[C@H]2O)c(-c2ccc(O)c(O)c2)oc2cc(O)cc(O)c12 [Isoquercetin]
- OD600 max (L. acidophilus NCFM [1]; [10]): 0.0

Structure (SMILES): C[C@@H]1O[C@@H](OC[C@H]2O[C@@H](Oc3c(-c4ccc(O)c(O)c4)oc4cc(O)cc(O)c4c3=O)[C@H](O)[C@@H](O)[C@@H]2O)[C@H](O)[C@H](O)[C@H]1O [Rutin hydrate]
- OD600 max (L. acidophilus NCFM [1]; [10]): 0.1

Structure (SMILES): COc1cc(C=O)ccc1O[C@@H]1O[C@H](CO)[C@@H](O)[C@H](O)[C@H]1O [Vanilin 4-O-β-glucoside]
- Catabolism based on MS (L. acidophilus NCFM [2]; [10]): Yes
- OD600 max (L. acidophilus NCFM [1]; [10]): 1.3

Structure (SMILES): OCc1ccccc1O [salicyl alcohol]
- ability of the aglycone per se to support growth (L. acidophilus NCFM [1]; data not shown): unable to support growth
